Test results published in patent US20240261351A1, “COMPOSITIONS AND METHODS FOR THE TREATMENT OF BONE AND JOINT DISEASES” (priority 2021, published 2024).
Several values for one entry are separate records, joined by “and”; a condition that tells them apart may be missing. Equal values may be shown once.

Tests used:
[1] = Strontium blood levels by Inductively Coupled Plasma Mass Spectrometry; conditions: for maximum strontium blood level: 10-15 g strontium salt daily split morning and evening plus 50 g Aquamin daily as top dressing for 14 days, blood drawn in the morning before feeding, individual horses
Protocol: Approximately 4 months into the trial, strontium blood levels were measured in a small group of horses. […] (Li et al., 2009). To measure strontium blood levels, Inductively Coupled Plasma Mass Spectrometry was used (Eurofins Lab, (Wisconsin USA)).
A group of six horses were utilized and were administered the subject compositions for 14 days total. The compositions were added to morning and evening feed as a top dressing. All subjects received 50 g of “Aquamin” daily given as 25 g in morning and 25 g in evening. Three horses received Strontium ranelate at 10 g, 12 g, and 15 g daily split between the morning and evening. Three horses received Strontium citrate at 10 g, 12 g, and 14 g daily split morning and evening. Blood samples were taken a day 0, 1, 5, 8, 12, and 15 days. Bloods were drawn first thing in the morning before any supplements were fed.

[2] = human, receiving 2 grams per day (AusProtos, 2013); cited from earlier work

Compound	maximum strontium blood level [1]	strontium blood levels [2] [µmol/L]	strontium blood levels compared with strontium ranelate ([1]; six-horse 14 day study with 50 g Aquamin daily)
N#Cc1c(N(CC(=O)[O-])CC(=O)[O-])sc(C(=O)[O-])c1CC(=O)[O-].[Sr+2].[Sr+2] [strontium ranelate, reference compound]	about 7.5 μmole/L	140 to 150	–
strontium citrate	9.3 µmol/L and 9.5 µmol/L	–	comparable
